In BindingDB's records for doi:10.1021/acsmedchemlett.8b00054 (Shandong University, 2018):

Tests used:
[1] = tested on: wild-type HIV1 3B reverse transcriptase (virus infecting MT4 cells); test: Inhibition of wild-type HIV1 3B reverse transcriptase infected in human MT4 cells assessed as protection against virus-induced cytotoxicity by MTT assay
[2] = tested on: HIV1 RES056 reverse transcriptase K103N/Y181C double mutant (virus infecting MT4 cells); test: Inhibition of HIV1 RES056 reverse transcriptase K103N/Y181C double mutant infected in human MT4 cells assessed as protection against virus-induced cytotoxicity by MTT assay
[3] = Inhibition of HIV1 reverse transcriptase K103N mutant infected in human MT4 cells assessed as protection against virus-induced cytotoxicity by MTT assay
[4] = Inhibition of HIV1 reverse transcriptase E138K mutant infected in human MT4 cells assessed as protection against virus-induced cytotoxicity by MTT assay
[5] = Inhibition of HIV1 reverse transcriptase L100I mutant infected in human MT4 cells assessed as protection against virus-induced cytotoxicity by MTT assay
[6] = Inhibition of HIV1 reverse transcriptase Y188L mutant infected in human MT4 cells assessed as protection against virus-induced cytotoxicity by MTT assay
[7] = Inhibition of HIV1 reverse transcriptase F227L/V106A double mutant infected in human MT4 cells assessed as protection against virus-induced cytotoxicity by MTT assay
[8] = Inhibition of HIV1 reverse transcriptase Y181C mutant infected in human MT4 cells assessed as protection against virus-induced cytotoxicity by MTT assay

Structure (SMILES)	EC50 [1] [nM]	EC50 [2] [nM]	further results
Cc1cc(C#N)cc(C)c1Oc1nc(NC2CCN(Cc3ccc(S(C)(=O)=O)cc3)CC2)nc2ccn(S(=O)(=O)c3ccccc3)c12	31	187	
Cc1cc(C#N)cc(C)c1Oc1nc(NC2CCN(Cc3ccc(S(C)(=O)=O)cc3)CC2)nc2cc[nH]c12	5.9	116	
Cc1cc(C#Cc2cccnc2)cc(C)c1Oc1nc(NC2CCN(Cc3ccc(S(N)(=O)=O)cc3)CC2)nc2ccsc12	41	153	
Cc1cc(C#N)cc(C)c1Oc1nc(NC2CCN(Cc3ccc(C(N)=O)cc3)CC2)nc2cc[nH]c12	5.7	113	
Cc1cc(C#N)cc(C)c1Oc1nc(NC2CCN(Cc3cn(S(C)(=O)=O)cn3)CC2)nc2ccsc12	5.7	2700	EC50 [3]: 4.5 nM; EC50 [4]: 13 nM
Cc1cc(C#N)cc(C)c1Oc1nc(NC2CCN(Cc3ccco3)CC2)nc2ccsc12	3.6	> 272000	EC50 [4]: 8.8 nM
Cc1cc(/C=C/C#N)cc(C)c1Nc1nc(NC2CCN(Cc3ccc(S(N)(=O)=O)cc3)CC2)nc2ccsc12	1.2	5	
Cc1cc(C#N)cc(C)c1Oc1nc(NC2CCN(Cc3ccc(S(N)(=O)=O)cc3)CC2)nc2ccn(COCc3ccccc3)c12	9.5	484	
Cc1cc(C#N)cc(C)c1Oc1nc(NC2CCN(Cc3ccc(C(N)=O)cc3)CC2)nc2ccn(COCc3ccccc3)c12	36	567	
Cc1cc(C#N)cc(C)c1Nc1nc(NC2CCN(Cc3ccc(S(N)(=O)=O)cc3)CC2)nc2ccsc12	1.4	31	
Cc1cc(C#N)cc(C)c1Oc1nc(Nc2ccc(C#N)cc2)nc(N)c1Br	4	34	
Cc1ccnc2c1NC(=O)c1cccnc1N2C1CC1 [BI-RG-587]	124	> 15000	
Cc1cc(C#N)cc(C)c1Oc1nc(NC2CCN(Cc3ccc(S(N)(=O)=O)cc3)CC2)nc2ccn(S(=O)(=O)c3ccccc3)c12	8.9	110	
Cc1cc(C#Cc2ccncc2)cc(C)c1Oc1nc(NC2CCN(Cc3ccc(S(N)(=O)=O)cc3)CC2)nc2ccsc12	34	223	
Cc1cc(C#N)cc(C)c1Oc1nc(NC2CCN(Cc3ccc(S(C)(=O)=O)cc3)CC2)nc2ccn(COCc3ccccc3)c12	26	547	
Cc1cc(C#N)cc(C)c1Oc1nc(NC2CCN(Cc3ccc(C(N)=O)cc3)CC2)nc2ccn(S(=O)(=O)c3ccccc3)c12	17	2290	
Cc1cc(C#Cc2ccccn2)cc(C)c1Oc1nc(NC2CCN(Cc3ccc(S(N)(=O)=O)cc3)CC2)nc2ccsc12	9	888	
Cc1cc(C#N)cc(C)c1Oc1nc(NC2CCN(Cc3ccc(S(N)(=O)=O)cc3)CC2)nc2cc[nH]c12	2.4	85	EC50 [5]: 4.2 nM; EC50 [6]: 7.2 nM; EC50 [7]: 18 nM; EC50 [3]: 1 nM; EC50 [8]: 4.8 nM; EC50 [4]: 4 nM
Cc1cc(C#N)cc(C)c1Oc1nc(NC2CCN(Cc3n[nH]c(=O)n3C)CC2)nc2ccsc12	14	17100	
Cc1cn([C@H]2C[C@H](N=[N+]=[N-])[C@@H](CO)O2)c(=O)[nH]c1=O [1-((2R,4S,5S)-4-Azido-5-hydroxymethyl-tetrahydro-furan-2-yl)-5-methyl-1H-pyrimidine-2,4-dione]	7	17	
Cc1cc(C#N)cc(C)c1Oc1nc(NC2CCN(Cc3ccc(N4CCCC4)cc3)CC2)nc2ccsc12	33	> 4360	
Cc1cc(C#N)cc(C)c1Oc1nc(NC2CCN(Cc3c[nH]cn3)CC2)nc2ccsc12	5.5	1170	EC50 [3]: 6 nM; EC50 [4]: 12 nM
Cc1cc(C#N)cc(C)c1Oc1nc(NC2CCN(Cc3cc(=O)[nH]c(=O)[nH]3)CC2)nc2ccsc12	7.2	8970	EC50 [3]: 6.1 nM; EC50 [4]: 7 nM
